# Assay results published in ChEMBL document CHEMBL1649285, “In vivo efficacy of 1- and 2-gram human simulated prolonged infusions of doripenem against Pseudomonas aeruginosa” (Antimicrob Agents Chemother, 2009).
# Key:
# Type in all cases: functional
# Pseudomonas aeruginosa [1] = experiment: Antimicrobial activity against Pseudomonas aeruginosa isolate 1095 by broth microdilution method in presence of beta-lactamase inhibitor Tazobactam
# Pseudomonas aeruginosa [2] = experiment: Antimicrobial activity against Pseudomonas aeruginosa isolate 1006 by broth microdilution method in presence of beta-lactamase inhibitor Tazobactam
# Pseudomonas aeruginosa [3] = experiment: Antimicrobial activity against Pseudomonas aeruginosa isolate 878 by broth microdilution method in presence of beta-lactamase inhibitor Tazobactam
# Pseudomonas aeruginosa [4] = experiment: Antimicrobial activity against Pseudomonas aeruginosa isolate 1050 by broth microdilution method in presence of beta-lactamase inhibitor Tazobactam
# Pseudomonas aeruginosa [5] = experiment: Antimicrobial activity against Pseudomonas aeruginosa isolate 821 by broth microdilution method in presence of beta-lactamase inhibitor Tazobactam
# Pseudomonas aeruginosa [6] = experiment: Antimicrobial activity against Pseudomonas aeruginosa isolate 988 by broth microdilution method in presence of beta-lactamase inhibitor Tazobactam
# Pseudomonas aeruginosa [7] = experiment: Antimicrobial activity against Pseudomonas aeruginosa isolate 944 by broth microdilution method in presence of beta-lactamase inhibitor Tazobactam
# Pseudomonas aeruginosa [8] = experiment: Antimicrobial activity against Pseudomonas aeruginosa isolate 913 by broth microdilution method in presence of beta-lactamase inhibitor Tazobactam
# Pseudomonas aeruginosa [9] = experiment: Antimicrobial activity against Pseudomonas aeruginosa isolate 927 by broth microdilution method in presence of beta-lactamase inhibitor Tazobactam
# Pseudomonas aeruginosa [10] = experiment: Antimicrobial activity against Pseudomonas aeruginosa isolate 896 by broth microdilution method in presence of beta-lactamase inhibitor Tazobactam
# Pseudomonas aeruginosa [11] = experiment: Antimicrobial activity against Pseudomonas aeruginosa isolate 1036 by broth microdilution method in presence of beta-lactamase inhibitor Tazobactam
# Pseudomonas aeruginosa [12] = experiment: Antimicrobial activity against Pseudomonas aeruginosa isolate 968 by broth microdilution method in presence of beta-lactamase inhibitor Tazobactam
# Pseudomonas aeruginosa [13] = experiment: Antimicrobial activity against Pseudomonas aeruginosa isolate 971 by broth microdilution method in presence of beta-lactamase inhibitor Tazobactam
# Pseudomonas aeruginosa [14] = experiment: Antimicrobial activity against Pseudomonas aeruginosa isolate 1080 by broth microdilution method in presence of beta-lactamase inhibitor Tazobactam
# Pseudomonas aeruginosa [15] = experiment: Antimicrobial activity against Pseudomonas aeruginosa isolate 1060 by broth microdilution method in presence of beta-lactamase inhibitor Tazobactam
# Pseudomonas aeruginosa [16] = experiment: Antimicrobial activity against Pseudomonas aeruginosa isolate 22 by broth microdilution method in presence of beta-lactamase inhibitor Tazobactam
# Pseudomonas aeruginosa [17] = experiment: Antimicrobial activity against Pseudomonas aeruginosa isolate 856 by broth microdilution method in presence of beta-lactamase inhibitor Tazobactam
# Pseudomonas aeruginosa [18] = experiment: Antimicrobial activity against Pseudomonas aeruginosa isolate 1093 by broth microdilution method in presence of beta-lactamase inhibitor Tazobactam
# Pseudomonas aeruginosa [19] = experiment: Antimicrobial activity against Pseudomonas aeruginosa isolate 1080 by broth microdilution method
# Pseudomonas aeruginosa [20] = experiment: Antimicrobial activity against Pseudomonas aeruginosa isolate 1093 by broth microdilution method
# Pseudomonas aeruginosa [21] = experiment: Antimicrobial activity against Pseudomonas aeruginosa isolate 896 by broth microdilution method
# Pseudomonas aeruginosa [22] = experiment: Antimicrobial activity against Pseudomonas aeruginosa isolate 1036 by broth microdilution method
# Pseudomonas aeruginosa [23] = experiment: Antimicrobial activity against Pseudomonas aeruginosa isolate 821 by broth microdilution method
# Pseudomonas aeruginosa [24] = experiment: Antimicrobial activity against Pseudomonas aeruginosa isolate 971 by broth microdilution method
# Pseudomonas aeruginosa [25] = experiment: Antimicrobial activity against Pseudomonas aeruginosa isolate 856 by broth microdilution method
# Pseudomonas aeruginosa [26] = experiment: Antimicrobial activity against Pseudomonas aeruginosa isolate 878 by broth microdilution method
# Pseudomonas aeruginosa [27] = experiment: Antimicrobial activity against Pseudomonas aeruginosa isolate 22 by broth microdilution method
# Pseudomonas aeruginosa [28] = experiment: Antimicrobial activity against Pseudomonas aeruginosa isolate 944 by broth microdilution method
# Pseudomonas aeruginosa [29] = experiment: Antimicrobial activity against Pseudomonas aeruginosa isolate 988 by broth microdilution method
# Pseudomonas aeruginosa [30] = experiment: Antimicrobial activity against Pseudomonas aeruginosa isolate 927 by broth microdilution method
# Pseudomonas aeruginosa [31] = experiment: Antimicrobial activity against Pseudomonas aeruginosa isolate 968 by broth microdilution method
# Pseudomonas aeruginosa [32] = experiment: Antimicrobial activity against Pseudomonas aeruginosa isolate 1095 by broth microdilution method
# Pseudomonas aeruginosa [33] = experiment: Antimicrobial activity against Pseudomonas aeruginosa isolate 913 by broth microdilution method
# Pseudomonas aeruginosa [34] = experiment: Antimicrobial activity against Pseudomonas aeruginosa isolate 1006 by broth microdilution method
# Pseudomonas aeruginosa [35] = experiment: Antimicrobial activity against Pseudomonas aeruginosa isolate 1060 by broth microdilution method
# Pseudomonas aeruginosa [36] = experiment: Antimicrobial activity against Pseudomonas aeruginosa isolate 1050 by broth microdilution method
smiles,measurement,setting,value
CCN1CCN(C(=O)N[C@@H](C(=O)N[C@@H]2C(=O)N3[C@@H]2SC(C)(C)[C@@H]3C(=O)O)c2ccccc2)C(=O)C1=O [PIPERACILLIN],MIC,Pseudomonas aeruginosa [1],12 µg/mL
same,MIC,Pseudomonas aeruginosa [2],16 µg/mL
same,MIC,Pseudomonas aeruginosa [3],≥ 256 µg/mL
same,MIC,Pseudomonas aeruginosa [4],8 µg/mL
same,MIC,Pseudomonas aeruginosa [5],64 µg/mL
same,MIC,Pseudomonas aeruginosa [6],64 µg/mL
same,MIC,Pseudomonas aeruginosa [7],8 µg/mL
same,MIC,Pseudomonas aeruginosa [8],≥ 256 µg/mL
same,MIC,Pseudomonas aeruginosa [9],32 µg/mL
same,MIC,Pseudomonas aeruginosa [10],≥ 256 µg/mL
same,MIC,Pseudomonas aeruginosa [11],3 µg/mL
same,MIC,Pseudomonas aeruginosa [12],16 µg/mL
same,MIC,Pseudomonas aeruginosa [13],≥ 256 µg/mL
same,MIC,Pseudomonas aeruginosa [14],16 µg/mL
same,MIC,Pseudomonas aeruginosa [15],4 µg/mL
same,MIC,Pseudomonas aeruginosa [16],32 µg/mL
same,MIC,Pseudomonas aeruginosa [17],≥ 256 µg/mL
same,MIC,Pseudomonas aeruginosa [18],6 µg/mL
NC[C@H]1O[C@H](O[C@H]2[C@H](O)[C@@H](O[C@H]3O[C@H](CO)[C@@H](O)[C@H](N)[C@H]3O)[C@H](N)C[C@@H]2N)[C@H](N)C[C@@H]1O [TOBRAMYCIN],MIC,Pseudomonas aeruginosa [19],3 µg/mL
same,MIC,Pseudomonas aeruginosa [20],2 µg/mL
same,MIC,Pseudomonas aeruginosa [21],24 µg/mL
same,MIC,Pseudomonas aeruginosa [22],0.125 µg/mL
same,MIC,Pseudomonas aeruginosa [23],3 µg/mL
same,MIC,Pseudomonas aeruginosa [24],1.5 µg/mL
same,MIC,Pseudomonas aeruginosa [25],32 µg/mL
same,MIC,Pseudomonas aeruginosa [26],1.5 µg/mL
same,MIC,Pseudomonas aeruginosa [27],0.5 µg/mL
same,MIC,Pseudomonas aeruginosa [28],96 µg/mL
same,MIC,Pseudomonas aeruginosa [29],64 µg/mL
same,MIC,Pseudomonas aeruginosa [30],3 µg/mL
same,MIC,Pseudomonas aeruginosa [31],96 µg/mL
same,MIC,Pseudomonas aeruginosa [32],2 µg/mL
same,MIC,Pseudomonas aeruginosa [33],96 µg/mL
same,MIC,Pseudomonas aeruginosa [34],3 µg/mL
same,MIC,Pseudomonas aeruginosa [35],0.75 µg/mL
same,MIC,Pseudomonas aeruginosa [36],16 µg/mL
